How the values were obtained:
CD23 = test: Immunophenotyping (flow cytometry) of CD23 on CLL cells; assay type: cell-based, human; settings: 0.5 μM, 48 h, vs vehicle, n=6, P=0.001
Protocol: (§1) Immunophenotyping was performed to determine the percentage and mean fluorescence intensity of CD20, CD19, CD5, CD23, CD38, CD3, and CD52 on CLL cells relative to a specific isotype control. Cells (10^6) were washed in PBS, stained with fluorochrome-labeled antibodies at 4° C., then rinsed in PBS and analyzed by flow cytometry (EPICS-XL; Beckman Coulter, Fullerton, Calif.). A total of 10,000 events were collected and analyzed using Windows Multiple Document Interface for Flow Cytometry (WinMDI). CD20, CD19, CD3, CD5, CD23, and CD38 antibodies were obtained from BD Biosciences (San Jose, Calif.), and CD52 antibody was obtained from Serotec (Raleigh, N.C.).

CD38 = test: Immunophenotyping (flow cytometry) of CD38 on CLL cells; assay type: cell-based, human; settings: 0.5 μM, 48 h, vs vehicle, n=6, P<0.05
Protocol: as §1

CD19 = test: Immunophenotyping (flow cytometry) of CD19 on CLL cells; assay type: cell-based, human; settings: 0.5 μM, vs vehicle
Protocol: as §1

CD52 = test: Immunophenotyping (flow cytometry) of CD52 on CLL cells; assay type: cell-based, human; settings: 0.5 μM, vs vehicle, data not shown
Protocol: as §1

CD20 [1] = test: Intracellular CD20 staining (flow cytometry); assay type: cell-based, human
Protocol: CLL cells were incubated with a molar excess of rituximab to saturate the binding of extracellular CD20. Cells were washed twice with PBS and then fixed and permeablilized using the Cytofix/Cytoperm Kit (BD Biosciences PharMingen, San Diego, Calif.) according to the manufacturer's recommendations. Cells were then incubated with CD20-phycoerythrin (PE) antibody, washed twice in PBS, and analyzed by flow cytometry. To ensure the specificity of the staining procedure, binding of IgG1-k isotype antibody was also measured.

CD20 [2] = test: Laser-scanning confocal microscopy of CD20 internalization; assay type: cell-based, human; settings: lenalidomide 48 h at 37° C.
Protocol: Binding and internalization of anti-CD20 in CLL cells were examined by laser scanning confocal microscopy. CLL cells were incubated with lenalidomide for 48 hours at 37° C. and then collected and washed twice with PBS followed by fixation with 2% paraformaldehyde. Cells were then attached on a slide glass using Cytospin (Thermo Electron, Waltham, Mass.) and permeablilized with cold acetone for 5 minutes. Before cell membrane and nucleus staining, cells were preincubated with 1% bovine serum albumin in PBS for 1 hour at room temperature to reduce nonspecific binding. Cells were incubated with 50 μg/mL concanavalin A (Invitrogen) for 5 minutes at room temperature to stain cell membrane and with 1 μg/mL DRAQ5TM (Biostatus, Leicestershire, United Kingdom) for 5 minutes at room temperature to stain nucleus. Finally, slides were rinsed twice with PBS and covered with glass for confocal microscopy observation. Green fluorescence of fluorescein isothiocyanate-CD20, red fluorescence of concanavalin A, and blue fluorescence of DRAQ5 were analyzed, and merged images were produced using Zeiss 510 META Laser Scanning Confocal Imaging Systems and LSM Image software (Carl Zeiss, Thornwood, N.Y.).

CD20 [3] = test: Immunoblot of total CD20 protein; assay type: cell-based, human; settings: 48 and 72 hours, relative to vehicle control
Protocol: Immunoblot assays were performed with the multiple antigen detection immunoblotting method as described previously.^23 Whole-cell lysates were prepared and stored in −80° C. Protein concentration was quantified by the bicinchoninic acid method (Pierce Chemical, Rockford, Ill.). Protein samples (50 μg) were separated by sodium dodecyl sulfate-polyacrylamide gel electrophoresis (12%) and transferred to 0.2-μm nitrocellulose membranes (Whatman Schleicher & Schuell, Keene, N.H.) and incubated with goat antihuman CD20 (Santa Cruz Biotechnology, Santa Cruz, Calif.) or rabbit antiactin (Cell Signaling Technology, Danvers, Mass.) antibodies. Horseradish peroxidase-conjugated goat anti-rabbit IgG (Bio-Rad, Hercules, Calif.) was used as secondary antibody Immune complexes were detected using chemiluminescent substrate (SuperSignal; Pierce Chemical).

CLL cells = test: Immunoliposome FAM-ODN uptake studies; assay type: cell-based, human
Protocol: An ethanol dilution method was modified to prepare the FAM-ODN-loaded immunoliposomes.^25 Briefly, protamine sulfate in citric acid (20 mM, pH 4) was mixed with lipids (DC-Chol/Egg-PC/PEG-DSPE [molar ratio]=28.0:70.0:2.0) at a mass ratio of lipids:protamine=12.5:0.3, followed by addition of ODN in citric acid (20 mM, pH 4) at ODN/lipids/protamine (weight ratio)=1:12.5:0.3. The complexes were then dialyzed against citric acid (20 mM, pH 4) for 1 hour and then further dialyzed against N-2-hydroxyethylpiperazine-N′-2-ethanesulfonic acid-buffered saline (145 mM NaCl, 20 mM N-2-hydroxyethylpiperazine-N′-2-ethanesulfonic acid, pH 7.4) overnight, using a DispoDialyzer (Spectrum Labs, Rancho Dominguez, Calif.) with a molecular weight cutoff of 10,000 Da. Liposome size distribution was analyzed by dynamic light scattering on a NICOMP Particle Sizer Model 370 (Particle Sizing Systems, Santa Barbara, Calif.).
A postinsertion method was adopted to incorporate antibody ligands into preformed liposomes containing FAM-ODN. In this method, rituximab, trastuzumab (anti-Her2), or alemtuzumab (anti-CD52) was incubated with 20× Traut reagent (2 hours at room temperature) to yield sulfhydryl-modified antibodies. The anti-CD20—sulfhydryl was then incubated with micelles of Mal-PEG-DSPE at a molar ratio of 1:10 and then incubated with FAM-ODN loaded liposomes for 1 hour at 37° C. Targeted liposomes with antibody-PEG-DSPE-to-lipid ratios of 1:1000 ([…]) were thus prepared.
CLL cells were incubated at 10^6 cells/mL for 1 hour at 37° C. with rituximab-, trastuzumab-, or alemtuzumab-coated immunoliposome-FAM-ODN (CODN=1.0 μM) and washed twice in PBS. Cells were kept in culture in RPMI 10% fetal bovine serum for an additional 1, 4, and 24 hours, respectively, in the presence of either 0.5 μM lenalidomide or vehicle control. […] Cells were visualized on a Nikon fluorescence microscope (magnification ×200).
The inventors herein used a FAM-ODN formulated into rituximab-coated immunoliposomes. […] Cells were visualized on a Nikon fluorescence microscope (magnification, ×200).

human monocytes = test: Antibody-dependent cellular phagocytosis by human monocytes; assay type: cell-based; settings: data not shown
[4] = test system: B-cell lymphoma cell lines; settings: cited from earlier work
[5] = rituximab-coated immunoliposome-FAM-ODN, 0.5 μM lenalidomide

## Nc1cccc2c1CN(C1CCC(=O)NC1=O)C2=O (stereo not shown) [lenalidomide]
CD23
  CD23 activation marker level on CLL cells: increased levels
CD38
  CD38 activation marker level on CLL cells: increased levels
CD19
  CD19 expression on CLL cells: no changes
CD52
  CD52 expression on CLL cells: no changes
CD20 [1]; after lenalidomide treatment
  CLL subject samples with reduction of CD20 antigen surface expression: 6 of 8
CD20 [1]; compared with vehicle-treated controls, P=0.006
  intracellular CD20 fluorescence: increased intracellular fluorescence
CD20 [2]
  CD20 internalization in CLL cells: actively internalized
CD20 [3]
  total level of CD20 protein: no variation
CLL cells; 0.5 μM lenalidomide after 1 h immunoliposome-FAM-ODN (1.0 μM), N=3
  internalization of fluorochrome-labeled ODN from rituximab-coated immunoliposomes: enhanced internalization
CLL cells; [5]
  earliest time of enhanced ODN internalization: 1 h
  time of maximum effect on ODN internalization: 24 h
Human monocytes
  antibody-dependent cellular phagocytosis: not modulated
[4]
  CD20 surface antigen expression: without affecting
